Assay results: US20110224300A1, “USE OF POTASSIUM 2-(a- HYDROXYPENTYL) BENZOATE IN THE MANUFACTURE OF MEDICAMENTS FOR PREVENTING AND/OR TREATING SENILE [sequence]” (Institute of Mataria Medica, Chinese Academy of Me, priority 2008, published 2011)

Assays:
SOD = SOD activity of brain tissues from Aβ(25-35)-induced dementia rats; type: in vivo, Male Wistar rats; settings: Aβ(25-35) rats; for SOD activity in the cortex: 2 weeks, vehicle 286.8±18.3
Method: (§1) The biochemical assays were conducted later (in 24 h) after behavioral testing. Eight rats in each group were anesthetized with ether and sacrificed. The brains were quickly removed and cleaned with ice-cold saline. Then the parietal cortex and hippocampus were isolated. For biochemical analysis, the tissues were weighed and homogenized in ice-cold saline with the proportion of 1:9 (w/v). Homogenization (IKA, Germany) was carried out for 2 min in an ice bath. After the homogenates were centrifuged at 2,000×g for 10 min at 4° C. (Sigma, Germany), the supernatant was used for analytical procedures. The levels of choline acetyltransferase (ChAT) SOD, and MDA activities were determined with commercial colorimetric assay kits (Nanjing Jiancheng Bioengineering Institute, China). The content of protein in the supernatant was determined by Bradford method using BSA as standard.
(§2) Rats were divided into four experimental groups randomly (10 rats/each group): one sham-operated group, one vehicle control group, and two dl-PHPB-treated groups (39, and 129 mg/kg). At 1 days after operation, drugs and vehicle were administered orally to rats for 14 days (one time/each day). The spatial learning and memory abilities of rats were detected by Morris water maze in the 9-12 days after operation. The testing of Morris water was commenced at 40 min after drugs treated. The biochemical and pathology assays conducted later (in 24 h) after behavioral testing.
The methods as described previously.

[1] = test system: Aβ(25-35)-induced dementia rats; assay: Morris water maze in Aβ(25-35)-induced dementia rats; type: in vivo, Male Wistar rats; settings: Aβ(25-35) rats; for percentage of time in the target quadrant (probe test): vehicle 21.6±1.6%
Method: Subjects were tested in a Morris water maze. This test is based on a standardized assessment of spatial learning ability. The water maze apparatus consisted of a circular, stainless pool (120 cm in diameter, 60 cm in height). It was placed in a dimly lit, sound-proof test room. Multiple distant cues around the room (window, cabinets, furniture) were kept in the same location throughout the experiments. The water was filled to a depth of 40 cm at 25±1° C. and was made opaque by adding milk powder to prevent visualization of the platform. A transparent platform (10 cm diameter) was put 1.5 cm below the surface of the water. The tank was divided into four quadrants with the platform in a fixed position in one quadrant. The subjects were placed into the maze facing the pool wall and were allowed two trials per day, 60 s per trial, to find the hidden platform. If the subject found the platform within the 60 s, it was given a 10-s rest period on the platform between trials. If the pedestal was not located within the time allotted, the subject was placed on to the platform and allowed 10 s until the next trial. The escape latency (time to reach the platform) was used to assess acquisition of the water maze task. Sessions were repeated for five consecutive days. On the sixth day, the platform was removed and the rat was allowed to search for the platform for 60 s (probe test). The time in the platform quadrant and latency time to cross platform location were recorded to measure the spatial learning ability without the influence of chance encounters with the platform. The Morris water maze sessions were recorded with a video camera for offline analysis.
Aβ(25-35)-induced dementia model in 10 months of Male Wistar rats with 600 g B.W. was created by slow injection of 15 nmol (volume of 50) aggregation of Aβ (25-35). Sham-operation group was only injected with PBS (volume of 50). After operation, the animals were injected penicillin 200 000 units for 4 days by intraperitoneal injection.
as §2
The navigation test was performed in 9-12 days after icy Aβ (25-35) by the same method as the before. On the thirteenth day, the platform was removed and the rat was allowed to search for the platform for 30 s (probe test). The time in the platform quadrant and latency time to cross platform location were recorded to measure the spatial learning ability without the influence of chance encounters with the platform.

MDA [2] = assay: MDA level of brain tissues from permanent 2-VO rats; type: in vivo, rat; settings: for MDA level in cortex: 21 days
Method: In 10 days after onset of 2-VO, drugs and vehicle were administered orally to rats for 21 days (one time/each day). The spatial learning and memory capability of rats were detected by Morris water maze in the 25-30 days after operation. The Morris water test was commenced at 40 min after drugs treated. The biochemical and pathology assays were conducted later (in 24 h) after behavioral tests.
as §1

Mitochondrial ATPase = assay: Cortex mitochondrial ATPase activity in SAMP8 mice; type: in vivo; settings: 160 mg/kg oral, 35 days, vehicle 8.58±0.21, significant
Method: as §1
SAMP8 were divided into three experimental groups randomly: one vehicle control group, and two dl-PHPB-treated groups (50, and 160 mg/kg). Drugs and vehicle were administered orally to SAMP8 mice for 35 days (one time/each day). The spatial learning and memory abilities of SAMP8 mice were detected by Morris water maze and DTT-2 jumping apparatus in 31-35 days. The testing was commenced at 40 min after drugs treated. The biochemical and pathology assays conducted later (in 24 h) after behavioral testing. […]

MDA [3] = assay: MDA level of brain tissues from Aβ(25-35)-induced dementia rats; type: in vivo, Male Wistar rats; settings: Aβ(25-35) rats, 2 weeks, vehicle 5.43±0.55
Method: as §1
as §2, with “The biochemical and pathology assays conducted later (in 24 h) after behavioral testing.” left out

SAMP8 mice = assay: Step down test in SAMP8 mice; type: in vivo; settings: for step-down latency time: vehicle 0.7±0.2, P<0.01
Method: SAMP8 were divided into three experimental groups randomly: one vehicle control group, and two dl-PHPB-treated groups (50, and 160 mg/kg). Drugs and vehicle were administered orally to SAMP8 mice for 35 days (one time/each day). The spatial learning and memory abilities of SAMP8 mice were detected by Morris water maze and DTT-2 jumping apparatus in 31-35 days. The testing was commenced at 40 min after drugs treated. The biochemical and pathology assays conducted later (in 24 h) after behavioral testing.
The step-down avoidance task was performed by using a behavior box (22 cm×15 cm×30 cm each). Each testing chamber has 3 Plexiglas black walls, a clear Plexiglas front wall, metal grid floors and an insulating platform (3 cm diameter, 4 cm height), which is located at one corner of the testing chamber. The metal grids are connected to the output terminals of an electrical stimulator. For the habituation session, each mouse was gently placed on the insulating platform and was allowed to explore in the testing chamber for 3 min before placing back on the platform again. Monophasic pulses (1 ms, 1 Hz, 36 VDC) were continuously delivered for 5 min during the training tria. If the mouse steps down from the platform onto the grid floor, the mouse will be subjected to receive an electric shock until returning to the platform. Then, 24 h after the training, the mice were placed on the platform for assessing their long term memory of retention period. The electric shocks were delivered for 5 min and the latency to step down on the grid with four paws for the first time (step-down latency) and the numbers of errors subjected to shocks within 5 min were recorded.

SMILES: CCCCC(O)c1ccccc1C(=O)[O-].[K+] (racemic) [dl-PHPB, Potassium 2-(1-Hydroxypentyl)-benzoate]
- SOD activity in the cortex (SOD; 39 mg/kg oral): 238.2±32.7 U/mg protein
- SOD activity in the cortex (SOD; 129 mg/kg oral, P<0.01): 185.2±21.6 U/mg protein
- SOD activity in the hippocampus (SOD; hippocampus): not significantly improved
- escape latency ([1]; 39 mg/kg orally, 2nd day of training, P<0.05): shorter than sham group
- escape latency ([1]; 39 mg/kg orally, 3rd to 4th days): shorter than vehicle group
- percentage of time in the target quadrant (probe test) ([1]; 39 mg/kg orally, trend only): 24.6±3.0%
- escape latency ([1]; 129 mg/kg orally, 3rd to 4th days, P<0.05 or P<0.01): significantly shorter than vehicle group
- percentage of time in the target quadrant (probe test) ([1]; 129 mg/kg orally, sham 32.8±4.0%, p<0.05 vs vehicle): 30.2±2.5%
- time of the first cross platform (probe test) ([1]; dose not specified): shorten trend
- MDA level in cortex (MDA [2]; dl-PHPB 13 mg/kg): decreased MDA level
- MDA level in cortex (MDA [2]; dl-PHPB 39 mg/kg): decreased MDA level
- MDA level in cortex (MDA [2]; dl-PHPB 129 mg/kg): decreased MDA level
- MDA level in hippocampus (MDA [2]; hippocampus, doses not given): no significant effects
- ATPase activity (cortex mitochondria) (Mitochondrial ATPase): 9.82±0.51 U/mg protein
- cortex MDA level (MDA [3]; 39 mg/kg oral, P<0.05): 3.62±0.21 nmol/mg protein
- cortex MDA level (MDA [3]; 129 mg/kg oral, P<0.01): 3.28±0.25 nmol/mg protein
- numbers of errors subjected to shocks (SAMP8 mice; 50 mg/kg oral, first day of training, vehicle 8.3±0.6, P<0.01): 5.8±0.5
- numbers of errors subjected to shocks (SAMP8 mice; 50 mg/kg oral, second day, vehicle 4.6±0.3, P<0.05): 3.4±0.3
- step-down latency time (SAMP8 mice; 50 mg/kg oral): 5.5±0.8
- numbers of errors subjected to shocks (SAMP8 mice; 160 mg/kg oral, first day of training, vehicle 8.3±0.6, P<0.001): 4.9±0.5
- numbers of errors subjected to shocks (SAMP8 mice; 160 mg/kg oral, second day, vehicle 4.6±0.3, P<0.01): 2.1±0.3
- step-down latency time (SAMP8 mice; 160 mg/kg oral): 10.2±2.4
